Experimental data: PubChem BioAssay AID2060483 (Molecular Pharmacology Branch, DTP, NCI, 2025)

System: K24384-001-R-PDC complex spheroids, viability
Test: Anticancer human tumor K24384-001-R-PDC patient-derived pancreatic adenocarcinoma cell line growth inhibition [GQUAD]
Conditions: for IC50: curve of first compound; for viability, T/C: stronger effect = lower value
Excerpt: DNA G-quadruplex Stabilizer Agents in Combinations in Complex Spheroids
A high-throughput screen of multi-cell type tumor spheroids was designed to identify active combinations of DNA G-quadruplex stabilizer agents and targeted small molecules. Complex spheroids include a stromal component modeled by human endothelial cells (HUVEC) and fibroblasts modeled by human mesenchymal stem cells (MSCs). The concentration ranges selected for each drug and investigational agent were based upon clinically achievable concentrations if the clinical Cmax of the agent was known.
Compounds. The drugs and investigational agents: pidnarulex (CX-5461; NSC782164), APTO-253 (NSC789042), BRACO-19 (NSC847499), peposertib (NSC802822), ceralasertib (NSC780249), elimusertib (NSC800525), camonsertib (NSC841442), AZD-1390 (NSC803789), olaparib (NSC753686), talazoparib (NSC767125), ART-558 (NSC835418), sotorasib (NSC818433), MRTX-1133 (NSC836407), SN-38 (NSC673596), topotecan (NSC609699), etoposide (NSC141540), doxorubicin (NSC123127), gemcitabine (NSC613327), 5-fluorouracil (NSC19893), paclitaxel (NSC125973), vemurafenib (NSC761431), panobinostat (NSC761190), R-306465 (JNJ-16241199; NSC773264), adavosertib (NSC754352), TP-3654 (NSC805149), carboplatin (NSC241240), KSQ-4279 (NSC840948), and staurosporine (NSC755774) were obtained from the National Cancer Institute (NCI) Developmental Therapeutics Program Chemical Repository (34). The FDA-approved anticancer drug set is available from the NCI Developmental Therapeutics Program. […] The stock solutions were prepared in dimethyl sulfoxide (DMSO, Sigma-Aldrich, St. Louis, MO, cat. D2650) at 800-fold the tested concentration and stored at -70 degrees C prior to their use. All drugs and investigational agents were tested over a range starting from a high concentration at or near the clinical Cmax and decreasing in half-log increments. If the clinical Cmax for an agent had not been determined, the highest concentration tested was 10 microM.
2.3 Cell Culture. All cells were maintained in an incubator at 37 degrees C and 5% CO2 with 95% humidity. The PDC lines were cultured according to standard operating procedures established by the NCI PDMR. All PDCs were thawed and cultured in Matrigel-coated flasks prepared with a working solution of 1X Ham's F-12 nutrient mix, without supplementation (Invitrogen, cat. 11765054), 100 U/mL penicillin-streptomycin (Invitrogen, cat. 15140122), and 2.5% Matrigel (Corning Inc., cat. 354248) for the first three passages. The 857933-349-R-J2-PDC line was cultured in 6C/Colon 1B media, which includes advanced DMEM/F-12 (Thermo Fisher Scientific, cat. 12634028), 10 mM HEPES (Thermo Fisher Scientific, cat. 15630080), 1X GlutaMAX supplement (Thermo Fisher Scientific, cat. 35050061), 0.1 mg/mL primocin (InvivoGen, cat. ant-pm-2), 10% defined fetal bovine serum, heat inactivated (HyClone Laboratories Inc., cat. SH30070.03HI), 50% L-WRN conditioned media (ATCC, cat. CRL-3276), 1.25 mM N-Acetyl-L-cysteine (Sigma-Aldrich, cat. A9165), 10 mM nicotinamide (Sigma-Aldrich, cat. N0636), 1X B-27 supplement (Thermo Fisher Scientific, cat. 17504044), 1X N-2 supplement (Thermo Fisher Scientific, cat. 17502048), 10 microM Y-27632 dihydrochloride (Tocris Bioscience, cat. 1254), and 50 ng/mL human EGF recombinant protein (Thermo Fisher Scientific, cat. PHG0311). The 485176-168-R4-J1-PDC line was cultured in Panc media, which includes all 6C/Colon 1B media components plus 100 ng/mL human FGF-10 (Thermo Fisher Scientific, cat. 100-26), 500 nM SB-431542 (Selleckchem, cat. S1067), and gastrin (Tocris, cat. 3006).
[…]
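Also: spheroids exposed to compounds for seven days.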

Structure (SMILES): O=C(NO)c1cnc(N2CCN(S(=O)(=O)c3ccc4ccccc4c3)CC2)nc1 + Cc1cnc(CNC(=O)c2c(=O)c3ccc(N4CCCN(C)CC4)nc3n3c2sc2ccccc23)cn1
- IC50 (second compound 0.0316 µM): 477 nM
- IC50 (second compound 0.1 µM): 325 nM
- IC50 (second compound 0.316 µM): 151 nM
- IC50 (second compound 1 µM): < 31.6 nM
- IC50 (second compound 3.16 µM): < 31.6 nM
- IC50 (second compound 10 µM): < 31.6 nM
- viability, T/C (second compound 0.0316 µM, first compound 0.0316 µM): 86.3%
- viability, T/C (second compound 0.0316 µM, first compound 0.1 µM): 78%
- viability, T/C (second compound 0.0316 µM, first compound 0.316 µM): 77.2%
- viability, T/C (second compound 0.0316 µM, first compound 1 µM): 0.9%
- viability, T/C (second compound 0.0316 µM, first compound 3.16 µM): 0.08%
- viability, T/C (second compound 0.0316 µM, first compound 10 µM): 0.11%
- viability, T/C (second compound 0.1 µM, first compound 0.0316 µM): 65.2%
- viability, T/C (second compound 0.1 µM, first compound 0.1 µM): 78.7%
- viability, T/C (second compound 0.1 µM, first compound 0.316 µM): 51.2%
- viability, T/C (second compound 0.1 µM, first compound 1 µM): 1.11%
- viability, T/C (second compound 0.1 µM, first compound 3.16 µM): 0.09%
- viability, T/C (second compound 0.1 µM, first compound 10 µM): 0.11%
- viability, T/C (second compound 0.316 µM, first compound 0.0316 µM): 42.7%
- viability, T/C (second compound 0.316 µM, first compound 0.1 µM): 73%
- viability, T/C (second compound 0.316 µM, first compound 0.316 µM): 35.8%
- viability, T/C (second compound 0.316 µM, first compound 1 µM): 0.16%
- viability, T/C (second compound 0.316 µM, first compound 3.16 µM): 0.07%
- viability, T/C (second compound 0.316 µM, first compound 10 µM): 0.09%
- viability, T/C (second compound 1 µM, first compound 0.0316 µM): 38.9%
- viability, T/C (second compound 1 µM, first compound 0.1 µM): 43.9%
- viability, T/C (second compound 1 µM, first compound 0.316 µM): 31.3%
- viability, T/C (second compound 1 µM, first compound 1 µM): 0.12%
- viability, T/C (second compound 1 µM, first compound 3.16 µM): 0.07%
- viability, T/C (second compound 1 µM, first compound 10 µM): 0.11%
- viability, T/C (second compound 3.16 µM, first compound 0.0316 µM): 33.3%
- viability, T/C (second compound 3.16 µM, first compound 0.1 µM): 34.1%
- viability, T/C (second compound 3.16 µM, first compound 0.316 µM): 16.3%
- viability, T/C (second compound 3.16 µM, first compound 1 µM): 0.12%
- viability, T/C (second compound 3.16 µM, first compound 3.16 µM): 0.1%
- viability, T/C (second compound 3.16 µM, first compound 10 µM): 0.14%
- viability, T/C (second compound 10 µM, first compound 0.0316 µM): 0.16%
- viability, T/C (second compound 10 µM, first compound 0.1 µM): 0.23%
- viability, T/C (second compound 10 µM, first compound 0.316 µM): 0.19%
- viability, T/C (second compound 10 µM, first compound 1 µM): 0.16%
- viability, T/C (second compound 10 µM, first compound 3.16 µM): 0.17%
- viability, T/C (second compound 10 µM, first compound 10 µM): 0.16%
